Test results published in patent publication US7745495B2, “Pyridine ketones with herbicidal effect” (Syngenta Crop Protection, Inc., priority 2004, dated 2010).

What was measured:
Assay type in all cases: in vivo
Chenopodium [1] = assay: Pre-emergence herbicidal action; settings: 250 g/ha; after 3 weeks; rating 10=total damage, 0=no action
Protocol: (§1) Monocotyledonous and dicotyledonous test plants are sown in standard soil in plastic pots. Immediately after sowing, the test compounds, in the form of an aqueous suspension (prepared from a 25% wettable powder (Example F3, b) according to WO 97/34485) or in the form of an emulsion (prepared from a 25% emulsifiable concentrate (Example F1, c)), are applied by spraying a concentration corresponding to 125 g or 250 g of active ingredient/ha (500 liter of water/ha). The test plants are then grown in a greenhouse under optimum conditions. After a test duration of 3 weeks, the test is evaluated in accordance with a scale of ten ratings (10=total damage, 0=no action). Ratings of from 10 to 7 (especially from 10 to 8) indicate good to very good herbicidal action.

Stellaria [2] = assay: Pre-emergence herbicidal action; settings: 250 g/ha; after 3 weeks; rating 10=total damage, 0=no action
Protocol: as §1

Abutilon [3] = assay: Pre-emergence herbicidal action; settings: rating 10=total damage, 0=no action; for Pre-emergence herbicidal action: Abutilon: 250 g/ha, after 3 weeks
Protocol: (§2) Monocotyledonous and dicotyledonous test plants are sown in standard soil in plastic pots. […] The test plants are then grown in a greenhouse under optimum conditions. After a test duration of 3 weeks, the test is evaluated in accordance with a scale of ten ratings (10=total damage, 0=no action). Ratings of from 10 to 7 (especially from 10 to 8) indicate good to very good herbicidal action.

Digitaria [4] = assay: Pre-emergence herbicidal action; settings: rating 10=total damage, 0=no action; for Pre-emergence herbicidal action: Digitaria: 250 g/ha, after 3 weeks; for Pre-emergent Herbicidal Activity: Digitaria: Table B5
Protocol: as §2

Amaranthus = assay: Pre-emergence herbicidal action; settings: rating 10=total damage, 0=no action; for Pre-emergence herbicidal action: Amaranthus: 250 g/ha, after 3 weeks
Protocol: as §2

Panicum [5] = assay: Pre-emergence herbicidal action; settings: 250 g/ha; after 3 weeks; rating 10=total damage, 0=no action
Protocol: as §2

Echinochloa = assay: Pre-emergence herbicidal action; settings: rating 10=total damage, 0=no action; for Pre-emergence herbicidal action: Echinochloa: 250 g/ha, after 3 weeks
Protocol: as §2

Abutilon [6] = assay: Post-emergence herbicidal action; settings: 250 g/ha; 4- to 6-leaf stage; after about 18 days; rating 10=total damage, 0=no action
Protocol: (§3) In a greenhouse, monocotyledonous and dicotyledonous test plants are grown in standard soil in plastic pots and at the 4- to 6-leaf stage are sprayed with an aqueous suspension of the test compounds of formula I prepared from a 25% wettable powder (Example F3, b) according to WO 97/34485) or with an emulsion of the test compounds of formula I prepared from a 25% emulsifiable concentrate (Example F1, c) according to WO 97/34485), in a concentration corresponding to 125 g or 250 g of active ingredient/ha (500 liter of water/ha). The test plants are then grown on in a greenhouse under optimum conditions. After a test duration of about 18 days, the test is evaluated in accordance with a scale of ten ratings (10=total damage, 0=no action). Ratings of from 10 to 7 (especially from 10 to 8) indicate good to very good herbicidal action.

Digitaria [7] = assay: Post-emergence herbicidal action; settings: 250 g/ha; 4- to 6-leaf stage; after about 18 days; rating 10=total damage, 0=no action
Protocol: as §3

Chenopodium [8] = assay: Post-emergence herbicidal action; settings: 250 g/ha; 4- to 6-leaf stage; after about 18 days; rating 10=total damage, 0=no action
Protocol: as §3

Ipomea = assay: Post-emergence herbicidal action; settings: 250 g/ha; 4- to 6-leaf stage; after about 18 days; rating 10=total damage, 0=no action
Protocol: as §3

Panicum [9] = assay: Post-emergence herbicidal action; settings: 250 g/ha; 4- to 6-leaf stage; after about 18 days; rating 10=total damage, 0=no action
Protocol: as §3

Setaria [10] = assay: Post-emergence herbicidal action; settings: 250 g/ha; 4- to 6-leaf stage; after about 18 days; rating 10=total damage, 0=no action
Protocol: as §3

Stellaria [11] = assay: Post-emergence herbicidal action; settings: 250 g/ha; 4- to 6-leaf stage; after about 18 days; rating 10=total damage, 0=no action
Protocol: as §3

Sinapis = assay: Post-emergence herbicidal action; settings: 250 g/ha; 4- to 6-leaf stage; after about 18 days; rating 10=total damage, 0=no action
Protocol: as §3

Scirpus = assay: Pre-emergent herbicidal activity; settings: Table B5, rating 10=total damage, 0=no action
Protocol: as §2
In the following Table B5, the pre-emergent herbicidal activity of compound H-9 according to the invention is compared with compound E according to the prior art. Both compounds are structurally identical except for the length of the alkylene linker attached to the pyridine ring.

Corn = assay: Pre-emergent herbicidal activity on crop plant; settings: crop plant, rating 10=total damage, 0=no action; for Pre-emergent Herbicidal Activity: Mais: Table B5; for Pre-emergent Herbicidal Activity: Corn: Table B3
Protocol: as §2
(§4) In the following Table B3, the pre-emergent herbicidal activity of compound H-14 according to the invention is compared with 4 compounds according to the prior art. All compounds are structurally identical except for the nature of the alkylene linker attached to the pyridine ring.

Soya = assay: Pre-emergent herbicidal activity on crop plant; settings: crop plant, rating 10=total damage, 0=no action; for Pre-emergent Herbicidal Activity: Soja: Table B5; for Pre-emergent Herbicidal Activity: Soya: Table B3
Protocol: as §2, §4

Brachiaria = assay: Pre-emergent herbicidal activity; settings: rating 10=total damage, 0=no action
Protocol: as §2, §4

Setaria [12] = assay: Pre-emergent herbicidal activity; settings: Table B3, rating 10=total damage, 0=no action
Protocol: as §2, §4

COCCCc1nc(C(F)(F)Cl)ccc1C(=O)C1C(=O)C2CCC(C2)C1=O (stereo not drawn) [Compound H-9] was tested, and the “Pre-emergence herbicidal action: Chenopodium” value (Chenopodium [1]) was 9, the “Pre-emergence herbicidal action: Stellaria” value (Stellaria [2]) was 7 and the “Pre-emergence herbicidal action: Abutilon” value (Abutilon [3]) was 10. For the same molecule, the “Pre-emergent Herbicidal Activity: Abutilon” value (Abutilon [3]; Table B5, 30 g/ha) was 8, the “Pre-emergent Herbicidal Activity: Abutilon” value (Abutilon [3]; Table B5, 60 g/ha) was 9 and the “Pre-emergence herbicidal action: Digitaria” value (Digitaria [4]) was 10. For the same molecule, the “Pre-emergent Herbicidal Activity: Digitaria” value (Digitaria [4]; 30 g/ha) was 8, the “Pre-emergent Herbicidal Activity: Digitaria” value (Digitaria [4]; 60 g/ha) was 9 and the “Pre-emergence herbicidal action: Amaranthus” value (Amaranthus) was 9. For the same molecule, the “Pre-emergent Herbicidal Activity: Amaranthus” value (Amaranthus; Table B5, 30 g/ha) was 8, the “Pre-emergent Herbicidal Activity: Amaranthus” value (Amaranthus; Table B5, 60 g/ha) was 8 and the “Pre-emergence herbicidal action: Panicum” value (Panicum [5]) was 10. For the same molecule, the “Pre-emergence herbicidal action: Echinochloa” value (Echinochloa) was 10, the “Pre-emergent Herbicidal Activity: Echinochloa” value (Echinochloa; Table B5, 30 g/ha) was 9 and the “Pre-emergent Herbicidal Activity: Echinochloa” value (Echinochloa; Table B5, 60 g/ha) was 10. The “Post-emergence herbicidal action: Abutilon” value (Abutilon [6]) was 9, the “Post-emergence herbicidal action: Digitaria” value (Digitaria [7]) was 9 and the “Post-emergence herbicidal action: Chenopodium” value (Chenopodium [8]) was 9. For the same molecule, the “Post-emergence herbicidal action: Ipomea” value (Ipomea) was 9, the “Post-emergence herbicidal action: Panicum” value (Panicum [9]) was 9 and the “Post-emergence herbicidal action: Setaria” value (Setaria [10]) was 9. The “Post-emergence herbicidal action: Stellaria” value (Stellaria [11]) was 8, the “Post-emergence herbicidal action: Sinapis” value (Sinapis) was 7 and the “Pre-emergent Herbicidal Activity: Scirpus” value (Scirpus; 30 g/ha) was 10. For the same molecule, the “Pre-emergent Herbicidal Activity: Scirpus” value (Scirpus; 60 g/ha) was 10, the “Pre-emergent Herbicidal Activity: Mais” value (Corn; 30 g/ha) was 0 and the “Pre-emergent Herbicidal Activity: Mais” value (Corn; 60 g/ha) was 1. For the same molecule, the “Pre-emergent Herbicidal Activity: Soja” value (Soya; 30 g/ha) was 0, the “Pre-emergent Herbicidal Activity: Soja” value (Soya; 60 g/ha) was 1 and the “Pre-emergent Herbicidal Activity: Brachiaria” value (Brachiaria; Table B5, 30 g/ha) was 9. For the same molecule, the “Pre-emergent Herbicidal Activity: Brachiaria” value (Brachiaria; Table B5, 60 g/ha) was 9.

In the case of COCCCc1nc(C(F)(F)F)ccc1C(=O)C1C(=O)C2CCC(C2)C1=O (stereo not drawn) [Compound H-14, 3-[6-trifluoromethyl-2-(3-methoxy-propyl)-pyridine-3-carbonyl]-bicyclo[3.2.1]octane-2,4-dione], the “Pre-emergence herbicidal action: Chenopodium” value (Chenopodium [1]) is reported as 10, the “Pre-emergence herbicidal action: Stellaria” value (Stellaria [2]) is reported as 8 and the “Pre-emergence herbicidal action: Abutilon” value (Abutilon [3]) is reported as 10. For the same molecule, the “Pre-emergent Herbicidal Activity: Abutilon” value (Abutilon [3]; Table B3, 15 g/ha) was 9, the “Pre-emergent Herbicidal Activity: Abutilon” value (Abutilon [3]; Table B3, 30 g/ha) was 10 and the “Pre-emergence herbicidal action: Digitaria” value (Digitaria [4]) was 10. The “Pre-emergence herbicidal action: Amaranthus” value (Amaranthus) was 10, the “Pre-emergent Herbicidal Activity: Amaranthus” value (Amaranthus; Table B3, 15 g/ha) was 7 and the “Pre-emergent Herbicidal Activity: Amaranthus” value (Amaranthus; Table B3, 30 g/ha) was 7. The “Pre-emergence herbicidal action: Panicum” value (Panicum [5]) was 10, the “Pre-emergence herbicidal action: Echinochloa” value (Echinochloa) was 10 and the “Pre-emergent Herbicidal Activity: Echinochloa” value (Echinochloa; Table B3, 15 g/ha) was 9. The “Pre-emergent Herbicidal Activity: Echinochloa” value (Echinochloa; Table B3, 30 g/ha) was 10, the “Post-emergence herbicidal action: Abutilon” value (Abutilon [6]) was 10 and the “Post-emergence herbicidal action: Digitaria” value (Digitaria [7]) was 9. The “Post-emergence herbicidal action: Chenopodium” value (Chenopodium [8]) was 10, the “Post-emergence herbicidal action: Ipomea” value (Ipomea) was 10 and the “Post-emergence herbicidal action: Panicum” value (Panicum [9]) was 10. The “Post-emergence herbicidal action: Setaria” value (Setaria [10]) was 10, the “Post-emergence herbicidal action: Stellaria” value (Stellaria [11]) was 10 and the “Post-emergence herbicidal action: Sinapis” value (Sinapis) was 10. For the same molecule, the “Pre-emergent Herbicidal Activity: Corn” value (Corn; 15 g/ha) was 0, the “Pre-emergent Herbicidal Activity: Corn” value (Corn; 30 g/ha) was 0 and the “Pre-emergent Herbicidal Activity: Soya” value (Soya; 15 g/ha) was 1. The “Pre-emergent Herbicidal Activity: Soya” value (Soya; 30 g/ha) was 3, the “Pre-emergent Herbicidal Activity: Brachiaria” value (Brachiaria; Table B3, 15 g/ha) was 7 and the “Pre-emergent Herbicidal Activity: Brachiaria” value (Brachiaria; Table B3, 30 g/ha) was 8. For the same molecule, the “Pre-emergent Herbicidal Activity: Setaria” value (Setaria [12]; 15 g/ha) was 9 and the “Pre-emergent Herbicidal Activity: Setaria” value (Setaria [12]; 30 g/ha) was 10.
